Test results: patent US10618918B2, “Substituted boronic acids as antimicrobials” (priority 2015, dated 2020)

Assays:
[1] = tested on: KP1004 KPC-2; assay: Aztreonam potentiation (MPC@4), strain KP1004 KPC-2; settings: minimum BLI concentration inhibiting growth with aztreonam 4 μg/mL; tested up to 40 μg/mL
[2] = tested on: PAM1032/KPC-2; assay: Biapenem potentiation MPC64 in PAM1032/KPC-2 (efflux proficient, overexpresses MexAB-OprM); type: cell-based, Pseudomonas aeruginosa; settings: BLI concentration decreasing biapenem MIC 64-fold, from 32 μg/ml to 0.5 μg/ml; efflux proficient strain
Procedure: (§1) Efflux of BLIs from Pseudomonas aeruginosa by the MexAB-OprM efflux pump was also evaluated. The plasmid expressing the gene encoding KPC-2 was introduced into two strains of P. aeruginosa, PAM1032 and PAM 1154 that overexpressed or lacked MexAB-OprM, respectively. […] Potency of BLIs to potentiate biapenem in these strains was determined.

[3] = tested on: PAM1154/KPC-2; assay: Biapenem potentiation MPC64 in PAM1154/KPC-2 (efflux deficient, lacks MexAB-OprM); type: cell-based, Pseudomonas aeruginosa; settings: BLI concentration decreasing biapenem MIC 64-fold, from 32 μg/ml to 0.5 μg/ml; efflux deficient strain
Procedure: as §1

[4] = tested on: KP1005 CTX-M-14; assay: Tigemonam potentiation (MPC@4), strain KP1005 CTX-M-14; settings: minimum BLI concentration inhibiting growth with tigemonam 4 μg/mL; tested up to 40 μg/mL
[5] = biological target: T1, purified class A, C and D enzymes (β-lactamases) (Acinetobacter baumannii, UniProt Q9L4P2); assay: biochemical; type: biochemical; settings: purified OXA-23; nitrocefin (NCF) as reporter substrate
T1 construct: rows headed: Ki (OXA-23, NCF), uM; other: purified OXA-23; nitrocefin (NCF) as reporter substrate
T1 sequence (Q9L4P2 whole entry): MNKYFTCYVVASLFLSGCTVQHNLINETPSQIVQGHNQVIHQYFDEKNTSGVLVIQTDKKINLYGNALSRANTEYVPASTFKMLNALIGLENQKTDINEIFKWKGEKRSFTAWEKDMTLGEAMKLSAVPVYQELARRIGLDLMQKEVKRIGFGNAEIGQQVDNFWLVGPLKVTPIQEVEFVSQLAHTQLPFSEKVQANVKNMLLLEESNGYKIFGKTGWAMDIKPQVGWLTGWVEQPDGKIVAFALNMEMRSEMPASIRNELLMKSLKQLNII

[6] = biological target: purified class A, C and D enzymes (β-lactamases) (Klebsiella pneumoniae, UniProt Q9F663); assay: biochemical; type: biochemical; settings: purified KPC-2; nitrocefin (NCF) as reporter substrate
[7] = biological target: purified class A, C and D enzymes (β-lactamases) (Escherichia coli, UniProt Q9L5C7); assay: biochemical; type: biochemical; settings: purified CTX-M-14; nitrocefin (NCF) as reporter substrate
Chain of purified class A, C and D enzymes (β-lactamases) (Escherichia coli, UniProt Q9L5C7) (Q9L5C7 entry or part of it): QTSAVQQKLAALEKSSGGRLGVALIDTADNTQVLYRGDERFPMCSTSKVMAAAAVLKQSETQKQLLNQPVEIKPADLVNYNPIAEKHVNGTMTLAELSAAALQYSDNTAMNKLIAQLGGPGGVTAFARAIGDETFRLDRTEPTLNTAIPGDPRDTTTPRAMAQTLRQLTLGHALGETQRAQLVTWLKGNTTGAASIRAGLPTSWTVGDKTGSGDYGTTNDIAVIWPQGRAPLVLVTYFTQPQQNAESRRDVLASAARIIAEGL

[8] = biological target: purified class A, C and D enzymes (β-lactamases) (Klebsiella pneumoniae, UniProt Q6XEC0); assay: biochemical; type: biochemical; settings: purified OXA-48; nitrocefin (NCF) as reporter substrate
[9] = biological target: T2, purified class A, C and D enzymes (β-lactamases) (UniProt P0AD64, L31Q/G234S/E235K, species not given); assay: biochemical; type: biochemical; settings: purified SHV-12; nitrocefin (NCF) as reporter substrate; read-out: Ki (SHV-12, NCF)
T2 construct: Ki (SHV-12, NCF), uM; other: purified SHV-12; nitrocefin (NCF) as reporter substrate
T2 sequence (P0AD64 1-286 L31Q/G234S/E235K): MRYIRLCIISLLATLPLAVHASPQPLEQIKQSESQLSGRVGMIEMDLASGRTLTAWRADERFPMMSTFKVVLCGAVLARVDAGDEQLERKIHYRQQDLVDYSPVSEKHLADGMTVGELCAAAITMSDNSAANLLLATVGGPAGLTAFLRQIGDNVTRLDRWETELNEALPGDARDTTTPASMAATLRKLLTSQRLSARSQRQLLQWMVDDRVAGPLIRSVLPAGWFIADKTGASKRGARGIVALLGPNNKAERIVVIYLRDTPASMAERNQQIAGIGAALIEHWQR

[10] = biological target: purified class A, C and D enzymes (β-lactamases) (Enterobacter cloacae, UniProt P05364); assay: biochemical; type: biochemical; settings: purified P99; nitrocefin (NCF) as reporter substrate
Chain of purified class A, C and D enzymes (β-lactamases) (Enterobacter cloacae, UniProt P05364) (P05364 21-381): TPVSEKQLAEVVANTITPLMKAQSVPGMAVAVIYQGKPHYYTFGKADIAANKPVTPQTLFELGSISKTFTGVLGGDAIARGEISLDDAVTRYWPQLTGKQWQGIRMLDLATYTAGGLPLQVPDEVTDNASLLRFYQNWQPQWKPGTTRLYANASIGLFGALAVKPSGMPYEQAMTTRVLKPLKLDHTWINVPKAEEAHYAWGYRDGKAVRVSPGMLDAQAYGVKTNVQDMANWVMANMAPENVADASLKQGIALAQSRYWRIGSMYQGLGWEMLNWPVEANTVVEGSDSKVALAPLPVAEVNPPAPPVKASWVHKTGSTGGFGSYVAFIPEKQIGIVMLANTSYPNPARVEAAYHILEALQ

[11] = tested on: KP1010 SHV-12; assay: Aztreonam potentiation (MPC@4), strain KP1010 SHV-12; settings: minimum BLI concentration inhibiting growth with aztreonam 4 μg/mL; tested up to 40 μg/mL
[12] = tested on: ECL1002; assay: Aztreonam potentiation (MPC@4), strain ECL1002; settings: minimum BLI concentration inhibiting growth with aztreonam 4 μg/mL; tested up to 40 μg/mL
[13] = tested on: KP1009 CTX-M-15; assay: Aztreonam potentiation (MPC@4), strain KP1009 CTX-M-15; settings: minimum BLI concentration inhibiting growth with aztreonam 4 μg/mL; tested up to 40 μg/mL
[14] = tested on: AB1054 OXA-23; assay: Meropenem potentiation (MPC@8), strain AB1054 OXA-23; type: cell-based, Acinetobacter baumannii; settings: minimum BLI concentration inhibiting growth with meropenem 8 μg/mL; tested up to 20 μg/mL
[15] = tested on: KP1004 KPC-2; assay: Biapenem potentiation (MPC@1), strain KP1004 KPC-2; type: cell-based; settings: minimum BLI concentration inhibiting growth with biapenem 1 μg/mL; tested up to 40 μg/mL
Procedure: (§2) Biapenem was present in the test medium at 1 μg/mL. […] Table 3 summarizes the BLI potency of biapenem potentiation (MPC@1) for two strains overexpressing class A (KPC) and class D (OXA-48) carbapenemases. Biapenem MIC for each strain is also shown.

[16] = tested on: EC1010 CMY-6; assay: Aztreonam potentiation (MPC@4), strain EC1010 CMY-6; settings: minimum BLI concentration inhibiting growth with aztreonam 4 μg/mL; tested up to 40 μg/mL
[17] = tested on: KP1086 OXA-48; assay: Biapenem potentiation (MPC@1), strain KP1086 OXA-48; type: cell-based; settings: minimum BLI concentration inhibiting growth with biapenem 1 μg/mL; tested up to 40 μg/mL
Procedure: as §2

[18] = tested on: ec302 TEM-10; assay: Aztreonam potentiation (MPC@4), strain ec302 TEM-10; settings: minimum BLI concentration inhibiting growth with aztreonam 4 μg/mL; tested up to 40 μg/mL
[19] = tested on: ec308 SHV-5; assay: Aztreonam potentiation (MPC@4), strain ec308 SHV-5; settings: minimum BLI concentration inhibiting growth with aztreonam 4 μg/mL; tested up to 40 μg/mL
[20] = tested on: AB1053 OXA-72; assay: Meropenem potentiation (MPC@8), strain AB1053 OXA-72; type: cell-based, Acinetobacter baumannii; settings: minimum BLI concentration inhibiting growth with meropenem 8 μg/mL; tested up to 20 μg/mL
[21] = biological target: T3, purified class A, C and D enzymes (β-lactamases) (Pseudomonas aeruginosa, UniProt P24735); assay: biochemical; type: biochemical; settings: purified Pa-AmpC; nitrocefin (NCF) as reporter substrate; read-out: Ki (Pa-AmpC, NCF)
T3 construct: rows headed: Ki (Pa-AmpC, NCF), uM; other: purified Pa-AmpC; nitrocefin (NCF) as reporter substrate
T3 sequence (P24735 whole entry): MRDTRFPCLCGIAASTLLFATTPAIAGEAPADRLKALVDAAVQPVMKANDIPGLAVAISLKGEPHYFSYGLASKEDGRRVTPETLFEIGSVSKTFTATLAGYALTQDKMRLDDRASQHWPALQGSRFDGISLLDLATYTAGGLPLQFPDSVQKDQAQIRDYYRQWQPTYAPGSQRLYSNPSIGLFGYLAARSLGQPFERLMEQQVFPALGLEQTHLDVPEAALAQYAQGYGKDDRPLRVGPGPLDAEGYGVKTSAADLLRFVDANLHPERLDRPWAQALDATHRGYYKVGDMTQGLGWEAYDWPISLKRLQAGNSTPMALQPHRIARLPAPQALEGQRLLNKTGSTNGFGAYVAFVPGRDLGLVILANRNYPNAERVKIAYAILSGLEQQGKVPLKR

Row | Structure (SMILES) | AZT MPC4 KPC-2 KP1004 [1] | PAM1032/KPC-2 Biapenem MPC64 [2] | PAM1154/KPC-2 Biapenem MPC64 [3] | TIG MPC4 CTX-M-14 KP1005 [4] | Ki [5] [nM] | Ki (KPC-2, NCF), uM [6] | Ki (CTX-M-14, NCF), uM [7] | Ki (OXA-48, NCF), uM [8] | Ki [9] [nM] | Ki (P99, NCF), uM [10] | AZT MPC4 SHV-12 KP1010 [11] | AZT MPC4 ECL1002 [12] | AZT MPC4 CTX-M-15 KP1009 [13] | MPM MPC8 AB1054 OXA-23 [14] | BPM MPC1 KP1004 KPC-2 [15] | AZT MPC4 CMY-6 EC1010 [16] | BPM MPC1 OXA-48 KP1086 [17] | AZT MPC4 TEM-10 ec302 [18] | AZT MPC4 SHV-5 ec308 [19] | MPM MPC8 AB1053 OXA-72 [20] | other results
1 | O=C(O)c1cccc2c1OB(O)CC2 [Compound 5, 2-HYDROXY-3,4-DIHYDRO-1,2-BENZOXABORININE-8-CARBOXYLIC ACID] | X (X = MPC@4 ≤ 5 μg/mL) | 20 | 0.3 | Z (Z = MPC@4 > 20 μg/mL) | 100 to 1000 | X (X = Ki ≤ 0.1 μM) | X (X = Ki ≤ 0.1 μM) | X (X = Ki ≤ 0.1 μM) | < 100 | X (X = Ki ≤ 0.1 μM) | Y (Y = 5 μg/mL < MPC@4 ≤ 20 μg/mL) | Z (Z = MPC@4 > 20 μg/mL) | Y (Y = 5 μg/mL < MPC@4 ≤ 20 μg/mL) | Y (Y = 5 μg/mL < MPC@1 ≤ 20 μg/mL) | X (X = MPC@1 ≤ 5 μg/mL) | Y (Y = 5 μg/mL < MPC@4 ≤ 20 μg/mL) | X (X = MPC@1 ≤ 5 μg/mL) | Z (Z = MPC@4 > 20 μg/mL) | Z (Z = MPC@4 > 20 μg/mL) | Z (Z = MPC@1 > 20 μg/mL) | –
2 | CSCC(=O)NC1CB(O)Oc2c(C(=O)O)cccc21 (centres unmarked) [Compound 3, 2-HYDROXY-4-(2-(METHYLTHIO)ACETAMIDO)-3,4-DIHYDRO-2H-BENZO[E][1.2]OXABORININE-8-CARBOXYLIC ACID] | X (X = MPC@4 ≤ 5 μg/mL) | 20 | 2.5 | X (X = MPC@4 ≤ 5 μg/mL) | < 100 | X (X = Ki ≤ 0.1 μM) | X (X = Ki ≤ 0.1 μM) | X (X = Ki ≤ 0.1 μM) | < 100 | X (X = Ki ≤ 0.1 μM) | X (X = MPC@4 ≤ 5 μg/mL) | X (X = MPC@4 ≤ 5 μg/mL) | X (X = MPC@4 ≤ 5 μg/mL) | Z (Z = MPC@1 > 20 μg/mL) | X (X = MPC@1 ≤ 5 μg/mL) | X (X = MPC@4 ≤ 5 μg/mL) | X (X = MPC@1 ≤ 5 μg/mL) | X (X = MPC@4 ≤ 5 μg/mL) | X (X = MPC@4 ≤ 5 μg/mL) | Y (Y = 5 μg/mL < MPC@1 ≤ 20 μg/mL) | Ki [21]: < 100 nM
